Earlier results in US20140171466A1, “PAIN MANAGEMENT IN SICKLE CELL ANEMIA” (priority 2012, published 2014).
“Also recorded” adds a separate entry of the source. Like-named read-outs stand apart in the source and are kept apart here.

Legend:
mice = settings: systemically administered
nonhuman primates = settings: systemic administration
[1] = compound on its own
[2] = in vivo

SMILES: O=C1NCN(c2ccccc2)C12CCN(C1CCC3CCCc4cccc1c43)CC2 (stereo in doubt) [Compound 7, ((1 S,3aS)-8-(2,3,3a,4,5,6-hexahydro-1H-phenalen-1-yl)-1-phenyl-1,3,8-triaza-spiro[4.5]decan-4-one)]
- morphine conditioned place preference (CPP) (mice): block morphine conditioned place preference (CPP)
- spinal anti-nociceptive action (nonhuman primates): spinal anti-nociceptive action of NOP agonists has been confirmed

SMILES: CCCCCCC(C)(C)c1ccc([C@@H]2C[C@H](O)CC[C@H]2CCCO)c(O)c1 [CP 55,940]
- hyperalgesia (BERK sickle mice; low dose 0.3 mg/kg): attenuated hyperalgesia
- deep hyperalgesia incited by H/R (BERK mice): ameliorated

SMILES: O=C1Cc2ccccc2N1C1CCN(C2CCCCCCC2)CC1 [Compound 3, 1-(1-cyclooctylpiperidin-4-yl)-indolin-2-one]
- reward in the CPP paradigm [1]: not rewarding on its own

SMILES: CC1(N2CCC(n3c([C@@H]4CCCNC4)nc4ccccc43)CC2)CCCCCCC1 [Compound 10, 1-[1-(1-methylcyclooctyl)-4-piperidinyl]-2-[(3R)-3-piperidinyl]-1H-benzimidazole]
- anxiolytic effects [2]: exhibits anxiolytic effects
- effect on memory or locomotion [2]: no effect on memory or locomotion

SMILES: CN1CC[C@]23c4c5ccc(O)c4O[C@H]2[C@@H](O)C=C[C@H]3[C@H]1C5 [morphine]
- hyperalgesia (BERK sickle mice; high dose 20 mg/kg, 20 mg/kg): effective; also recorded: markedly attenuated
